Marks after values point to notes of the source that are not given here.
System: patients with solid tumors
Experiment: Adverse events graded by CTCAE version 3.0, relatedness by investigator
Type: in vivo, human
Protocol: Cohort enrollment could be expanded to ensure that at least 6 evaluable patients were enrolled or in the event of unresolved safety, pharmacokinetic, or other concerns. The overall sample size could be further increased if additional dose cohorts were considered justified based on the results from the dose-escalation portion of the study. For continuous endpoints, the mean, standard error or standard deviation (SD); median; 25th and 75th percentiles; and minimum and maximum were calculated. For discrete data, the frequency and percent distributions were calculated. No formal comparisons between cohorts were performed. The data were analyzed using SAS software version 8.2 (SAS Institute, Cary, NC). […] The safety analysis set included all patients who received at least 1 dose of study therapy.

[1] = motesanib 50 mg QD + gemcitabine + erlotinib 100 mg QD, n = 7
[2] = motesanib 75 mg BID + gemcitabine + erlotinib 100 mg QD, n = 9
[3] = motesanib 100 mg QD + erlotinib 150 mg QD, n = 7
[4] = motesanib 100 mg QD + gemcitabine + erlotinib 100 mg QD, n = 8

CC1(C)CNc2cc(NC(=O)c3cccnc3NCc3ccncc3)ccc21 [motesanib]
Patients with grade ≥ 3 motesanib-related adverse events (all motesanib cohorts): Twenty-three | Grade 5 motesanib-related adverse events (human, in vivo): No grade 5 motesanib-related adverse events occurred | Motesanib-related diarrhea (human, in vivo): 19 n | Motesanib-related fatigue (human, in vivo): 12 n | Motesanib-related nausea (human, in vivo): 18 n | Motesanib-related vomiting (human, in vivo): 13 n | Patients discontinuing treatment with the drug because of adverse events (human, in vivo): 9 n | Serious motesanib-related deep vein thrombosis (human, in vivo): 2 n | Serious motesanib-related diarrhea (human, in vivo): 2 n | Serious motesanib-related nausea (human, in vivo): 5 n | Serious motesanib-related pulmonary embolism (human, in vivo): 2 n | Serious motesanib-related tumor necrosis (human, in vivo): 2 n | Serious motesanib-related vomiting (human, in vivo): 5 n | Abnormal liver function test, grade 3 (motesanib-related) [1]: 0 n | Adverse events of grade 3, n (motesanib-related) [1]: 0 n | Adverse events of grade 4, n (Pulmonary) [1]: 1 n | Any adverse event, n (motesanib-related) [1]: 3 n | Cardiac toxicity (all grade 3) [1]: 0 n | Deep vein thrombosis, grade 3 (motesanib-related) [1]: 0 n | Diarrhea, grade 3 (motesanib-related) [1]: 0 n | Fatigue, grade 3 (motesanib-related) [1]: 0 n | Febrile neutropenia, grade 4 (motesanib-related) [1]: 1 n | Gallbladder toxicity [1]: 0 n | Gallbladder toxicity, Grade 3 [1]: 0 n | Hemorrhagic events [1]: 0 n | Hemorrhagic events, Grade 3 [1]: 0 n | Hypertension, highest (worst) grade: Grade 3 [1]: 0 n | Nausea, grade 3 (motesanib-related) [1]: 0 n | Neutropenia, grade 3 (motesanib-related) [1]: 0 n | Neutropenia, grade 4 (motesanib-related) [1]: 0 n | Pulmonary embolism, grade 4 (motesanib-related) [1]: 0 n | Thrombophlebitis (all grade 3) [1]: 0 n | Tumor necrosis, grade 3 (motesanib-related) [1]: 0 n | Vomiting, grade 3 (motesanib-related) [1]: 0 n | Abnormal liver function test, grade 3 (motesanib-related) [2]: 0 n | Adverse events of grade 3, n (motesanib-related) [2]: 3 n | Adverse events of grade 4, n (Pulmonary) [2]: 1 n | Any adverse event, n (motesanib-related) [2]: 7 n | Cardiac toxicity (all grade 3) [2]: 0 n | Deep vein thrombosis, grade 3 (motesanib-related) [2]: 0 n | Diarrhea, grade 3 (motesanib-related) [2]: 0 n | Fatigue, grade 3 (motesanib-related) [2]: 0 n | Febrile neutropenia, grade 4 (motesanib-related) [2]: 0 n | Gallbladder toxicity [2]: 0 n | Gallbladder toxicity, Grade 3 [2]: 0 n | Hemorrhagic events [2]: 0 n | Hemorrhagic events, Grade 3 [2]: 0 n | Hypertension, highest (worst) grade: Grade 3 [2]: 0 n | Nausea, grade 3 (motesanib-related) [2]: 1 n | Neutropenia, grade 3 (motesanib-related) [2]: 0 n | Neutropenia, grade 4 (motesanib-related) [2]: 1 n | Pulmonary embolism, grade 4 (motesanib-related) [2]: 0 n | Thrombophlebitis (all grade 3) [2]: 0 n | Tumor necrosis, grade 3 (motesanib-related) [2]: 1 n | Vomiting, grade 3 (motesanib-related) [2]: 0 n | Abnormal liver function test, grade 3 (motesanib-related) [3]: 0 n | Adverse events of grade 3, n (motesanib-related) [3]: 3 n | Adverse events of grade 4, n (Pulmonary) [3]: 0 n | Any adverse event, n (motesanib-related) [3]: 7 n | Cardiac toxicity (all grade 3) [3]: 0 n | Deep vein thrombosis, grade 3 (motesanib-related) [3]: 0 n | Diarrhea, grade 3 (motesanib-related) [3]: 2 n | Fatigue, grade 3 (motesanib-related) [3]: 0 n | Febrile neutropenia, grade 4 (motesanib-related) [3]: 0 n | Gallbladder toxicity, Grade 3 [3]: 0 n | Hemorrhagic events, Grade 3 [3]: 0 n | Hypertension, highest (worst) grade: Grade 3 [3]: 0 n | Nausea, grade 3 (motesanib-related) [3]: 0 n | Neutropenia, grade 3 (motesanib-related) [3]: 1 n | Neutropenia, grade 4 (motesanib-related) [3]: 0 n | Pulmonary embolism, grade 4 (motesanib-related) [3]: 0 n | Thrombophlebitis (all grade 3) [3]: 0 n | Tumor necrosis, grade 3 (motesanib-related) [3]: 1 n | Vomiting, grade 3 (motesanib-related) [3]: 0 n | Hemorrhagic events (motesanib 100 mg QD + erlotinib 150 mg QD, n = 7, epistaxis (grade 1)): 1^e n | Gallbladder toxicity (motesanib 100 mg QD + erlotinib 150 mg QD, n = 7, gallbladder enlargement (grade 2)): 1^c n | Abnormal liver function test, grade 3 (motesanib-related) [4]: 1 n | Adverse events of grade 3, n (motesanib-related) [4]: 3 n | Adverse events of grade 4, n (Pulmonary) [4]: 0 n | Any adverse event, n (motesanib-related) [4]: 8 n | Deep vein thrombosis, grade 3 (motesanib-related) [4]: 0 n | Diarrhea, grade 3 (motesanib-related) [4]: 1 n | Fatigue, grade 3 (motesanib-related) [4]: 1 n | Febrile neutropenia, grade 4 (motesanib-related) [4]: 0 n | Gallbladder toxicity [4]: 0 n | Gallbladder toxicity, Grade 3 [4]: 0 n | Hemorrhagic events [4]: 0 n | Hemorrhagic events, Grade 3 [4]: 0 n | Hypertension, highest (worst) grade: Grade 3 [4]: 0 n | Nausea, grade 3 (motesanib-related) [4]: 0 n | Neutropenia, grade 3 (motesanib-related) [4]: 1 n | Neutropenia, grade 4 (motesanib-related) [4]: 0 n | Pulmonary embolism, grade 4 (motesanib-related) [4]: 0 n | Thrombophlebitis (all grade 3) [4]: 0 n | Tumor necrosis, grade 3 (motesanib-related) [4]: 0 n | Vomiting, grade 3 (motesanib-related) [4]: 1 n | Cardiac toxicity (all grade 3) (motesanib 100 mg QD + gemcitabine + erlotinib 100 mg QD, n = 8, congestive heart failure and pulmonary edema): 1^f n
